Source: patent publication US20090253709A1 (NATIONAL DEFENSE MEDICAL CENTER, priority 2008, published 2009)

What was measured:
[1] = MTT assay in H1299 cells; assay type: cell-based; details: human, H1299 cells (H1299/PhTERT-driven SEAP reporter system), H1299, read-out: MTT (Inhibition μM ± SD); for viability at 24 h, 1 µM: compound concentration 1 μM; for viability at 24 h, 10 µM: compound concentration 10 μM; for viability at 24 h, 100 µM: compound concentration 100 μM
Experimental: H1299 is a non-small cell lung cancer cell line with telomerase activity. The cell extract of H1299 cell lines can be used for selecting the telomerase activity inhibitors in vitro and the telomerase activity-inhibited substances in vivo. H1299 cell line was incubated with RPMI 1640 medium supplemented with 10% of fetal bovine serum (FBS). A total of 2×10^3 […] cells were seeded in the 96-well cell culture plate, and incubated with DMEM (GIBCO®)/glucose mixture and Medium 199 (GIBCO®)/10% FBS/1 mM sodium pyruvate (GIBCO®)/4 mM L-glutamine (GIBCO®) mixture at a ratio of 4:1 at 37° C. for 24 hours. […] After 48 hours of drug treatment, the cultured medium were collected for performing the analysis of SEAP activity. The cells were washed with 1×PBS once immediately, and the MTT assay was performed to compare the compounds with the relative toxicity or the influence to the proliferation and activity. Mitochondria is the place for cellular respiration, and there are many reductive reactions catalyzed by dehydrogenases. MTT is a water-soluble yellow compound, and the […] will be formed after reduction. This crystal can be dissolved in the organic solvent, and has high absorbance at the wavelength of 570 nm. The higher cellular activity or more cell numbers, the more generated crystal violets. Therefore, the cellular activity and cell number can be obtained by the MTT assay. MTT solution was prepared by dissolving MTT powder in PBS solution to achieve 5 mg/ml, filtrated and stored at 4° C. Lysis buffer contained 20% (w/v) of SDS in 50% of N,N-dimethylformamide (DMF, Riedel-deHaën). After the cells were incubated in the 96-well culture plate, the original medium was discarded, 100 μl of the fresh serum-free medium per well and 25 μl of MTT solution per well were added in respectively, and the cells were further incubated in the CO2 incubator at 37° C. for 4 hours. Then, 100 μl of lysis buffer per well was added in and incubated overnight in the CO2 incubator at 37° C. The absorbance at 570 nm was determined by the ELISA reader. The selection of telomerase inhibitors of the anthraquinone compounds provided in the present invention was performed by the […]-driven SEAP system. SEAP is the communication gene in this drug selection model. The SEAP inhibition was shown as follows. […] Subsequently, the linear slope of absorbance to the measuring time was calculated, and the variance of absorbance at 405 nm per minute was represented and compared with the SEAP-producing result of drug-untreated H1299 cells. In addition, the influence of the cell-treated drug solution to the cellular proliferation and the drug toxicity to the cells were considered, and the cellular growth was evaluated by the MTT assay. The drug-treated cells were analyzed by the SEAP assay and the data analysis of MTT assay at the same time. Both results were compared so as to delete the influence of cell number or the activity to SEAP, and the dose-dependent phenomenon could be anticipated in the range of drug concentration designed by the laboratory. […] Since the chemically-synthetic drugs have colors thereon, the SEAP value of drug-treatment without cells was also determined to be the background value which was deducted while treating with the drugs. The candidate drug for inhibiting telomerase on the hTERT gene expression level was evaluated and anticipated.

[2] = MTT assay in BJ1 cells; assay type: cell-based; details: human, hTERT-BJ1-PTERT(3.4)-SEAP cells, BJ1, read-out: MTT (Inhibition μM ± SD); for viability at 48 h, 1 µM: compound concentration 1 μM; for viability at 48 h, 10 µM: compound concentration 10 μM; for viability at 48 h, 100 µM: compound concentration 100 μM
Experimental: A total of 2×10^3 […] cells were seeded in the 96-well cell culture plate, and incubated with DMEM (GIBCO®)/glucose mixture and Medium 199 (GIBCO®)/10% FBS/1 mM sodium pyruvate (GIBCO®)/4 mM L-glutamine (GIBCO®) mixture at a ratio of 4:1 at 37° C. for 24 hours. […] After 48 hours of drug treatment, the cultured medium were collected for performing the analysis of SEAP activity. The cells were washed with 1×PBS once immediately, and the MTT assay was performed to compare the compounds with the relative toxicity or the influence to the proliferation and activity. Mitochondria is the place for cellular respiration, and there are many reductive reactions catalyzed by dehydrogenases. MTT is a water-soluble yellow compound, and the […] will be formed after reduction. This crystal can be dissolved in the organic solvent, and has high absorbance at the wavelength of 570 nm. The higher cellular activity or more cell numbers, the more generated crystal violets. Therefore, the cellular activity and cell number can be obtained by the MTT assay. MTT solution was prepared by dissolving MTT powder in PBS solution to achieve 5 mg/ml, filtrated and stored at 4° C. Lysis buffer contained 20% (w/v) of SDS in 50% of N,N-dimethylformamide (DMF, Riedel-deHaën). After the cells were incubated in the 96-well culture plate, the original medium was discarded, 100 μl of the fresh serum-free medium per well and 25 μl of MTT solution per well were added in respectively, and the cells were further incubated in the CO2 incubator at 37° C. for 4 hours. Then, 100 μl of lysis buffer per well was added in and incubated overnight in the CO2 incubator at 37° C. The absorbance at 570 nm was determined by the ELISA reader.

SMILES | viability at 24 h, 1 µM [1] [%] | viability at 24 h, 10 µM [1] [%] | viability at 24 h, 100 µM [1] [%] | viability at 48 h, 1 µM [2] [%] | viability at 48 h, 10 µM [2] [%] | viability at 48 h, 100 µM [2] [%]
O=C1c2ccc([N+](=O)[O-])cc2C(=O)c2cc([N+](=O)[O-])ccc21 [Compound 1, 2,7-dinitroanthraquinone] | 97 ± 15 | 95 ± 8 | 69 ± 10 | 91 ± 2 | 91 ± 2 | 86 ± 3
Nc1ccc2c(c1)C(=O)c1cc(N)ccc1C2=O [Compound 2, 2,7-Diaminoanthraquinone] | 90 ± 17 | 80 ± 16 | 65 ± 10 | 95 ± 2 | 83 ± 1 | 80 ± 2
O=C(CCl)Nc1ccc2c(c1)C(=O)c1cc(NC(=O)CCl)ccc1C2=O [Compound 3, 2,7-bis(chloroacetamido)anthraquinone] | 58 ± 44 | 5 ± 3 | 1 | 105 ± 2 | 89 ± 3 | 88 ± 2
CCN(CC)CC(=O)Nc1ccc2c(c1)C(=O)c1cc(NC(=O)CN(CC)CC)ccc1C2=O [Compound 4, 2,7-Bis[2-(diethylamino)acetamido]anthraquinone] | 101 ± 8 | 47 ± 7 | 25 ± 3 | 116 ± 4 | 67 ± 2 | 50 ± 1
CCCCNCC(=O)Nc1ccc2c(c1)C(=O)c1cc(NC(=O)CNCCCC)ccc1C2=O [Compound 5, 2,7-Bis[2-(butylamino)acetamido]anthraquinone] | 91 ± 16 | 17 ± 9 | 15 ± 11 | 103 ± 1 | 41 ± 1 | 43 ± 1
CCCNCC(=O)Nc1ccc2c(c1)C(=O)c1cc(NC(=O)CNCCC)ccc1C2=O [Compound 9, 2,7-Bis[2-(propylamino)acetamido]anthraquinone] | 89 ± 15 | 54 ± 11 | 14 ± 10 | 96 ± 3 | 44 | 42 ± 1
CN1CCN(CC(=O)Nc2ccc3c(c2)C(=O)c2cc(NC(=O)CN4CCN(C)CC4)ccc2C3=O)CC1 [Compound 11, 2,7-Bis[2-(N-methylpiperazino)acetamido]anthraquinone] | 90 ± 14 | 71 ± 4 | 37 ± 6 | 86 ± 1 | 69 ± 1 | 47 ± 3
O=C(CN1CCNCC1)Nc1ccc2c(c1)C(=O)c1cc(NC(=O)CN3CCNCC3)ccc1C2=O [Compound 12, 2,7-Bis[2-(piperazino)acetamido]anthraquinone] | 88 ± 19 | 85 ± 13 | 88 ± 11 | 88 ± 2 | 85 ± 15 | 76 ± 2
